Test results from ChEMBL document CHEMBL1201862, “PubChem BioAssay data set” (2004).
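96-well plates; 48 h exposure; 5 concentrations. Endpoints by linear interpolation between flanking doses. Not reached: highest tested concentration assigned. The concentration for 50% growth inhibition is given as GI50.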 Calls of active or inactive are those of the source. Cut-off read from the data, not from the text of the source: active = GI50 up to about 1.1 µM and inactive = higher.

What was measured:
Test in all cases: NCI anticancer screen, dose series, 48 h
EKVX = test system: EKVX
PC-3 = test system: PC-3
Hs-578T = test system: Hs-578T
RXF 393 = test system: RXF 393
OVCAR-3 = test system: OVCAR-3
MCF7 = test system: MCF7
SK-OV-3 = test system: SK-OV-3
UACC-257 = test system: UACC-257
M14 = test system: M14
NCI-H522 = test system: NCI-H522
COLO 205 = test system: COLO 205
LOX IMVI = test system: LOX IMVI
SN12C = test system: SN12C
CCRF-CEM = test system: CCRF-CEM
MDA-MB-231 = test system: MDA-MB-231
SF-539 = test system: SF-539
SK-MEL-28 = test system: SK-MEL-28
Malme-3M = test system: Malme-3M
OVCAR-8 = test system: OVCAR-8
OVCAR-4 = test system: OVCAR-4
KM12 = test system: KM12
U-251 = test system: U-251
A549 = test system: A549
786-0 = test system: 786-0
NCI-H460 = test system: NCI-H460
SNB-19 = test system: SNB-19
HCT-116 = test system: HCT-116
NCI-H23 = test system: NCI-H23
SF-268 = test system: SF-268
HL-60 = test system: HL-60
MOLT-4 = test system: MOLT-4
SK-MEL-5 = test system: SK-MEL-5
HOP-92 = test system: HOP-92
TK-10 = test system: TK-10
ACHN = test system: ACHN
SW-620 = test system: SW-620
HT-29 = test system: HT-29
SF-295 = test system: SF-295
RPMI-8226 = test system: RPMI-8226
MDA-MB-435 = test system: MDA-MB-435
IGROV-1 = test system: IGROV-1
BT-549 = test system: BT-549
MDA-N = test system: MDA-N
HCT-15 = test system: HCT-15
SK-MEL-2 = test system: SK-MEL-2
T47D = test system: T47D
UO-31 = test system: UO-31
UACC-62 = test system: UACC-62
OVCAR-5 = test system: OVCAR-5
A498 = test system: A498
CAKI-1 = test system: CAKI-1
HOP-62 = test system: HOP-62
DU-145 = test system: DU-145
NCI/ADR-RES = test system: NCI/ADR-RES
SNB-75 = test system: SNB-75
HCC 2998 = test system: HCC 2998
NCI-H226 = test system: NCI-H226
K562 = test system: K562

CC(=O)N(C(C)=O)n1nc2c(n1)C(=O)c1ccccc1C2=O
GI50 (EKVX): > 100 µM (inactive) | GI50 (PC-3): > 100 µM (inactive) | GI50 (Hs-578T): > 100 µM (inactive) | GI50 (RXF 393): > 100 µM (inactive) | GI50 (OVCAR-3): 28.1 µM (inactive) | GI50 (MCF7): > 100 µM (inactive) | GI50 (SK-OV-3): > 100 µM (inactive) | GI50 (UACC-257): 81.5 µM (inactive) | GI50 (M14): > 100 µM (inactive) | GI50 (NCI-H522): > 100 µM (inactive) | GI50 (COLO 205): > 100 µM (inactive) | GI50 (LOX IMVI): > 100 µM (inactive) | GI50 (SN12C): > 100 µM (inactive) | GI50 (CCRF-CEM): > 100 µM (inactive) | GI50 (MDA-MB-231): > 100 µM (inactive) | GI50 (SF-539): > 100 µM (inactive) | GI50 (SK-MEL-28): > 100 µM (inactive) | GI50 (Malme-3M): 68.1 µM (inactive) | GI50 (OVCAR-8): > 100 µM (inactive) | GI50 (OVCAR-4): > 100 µM (inactive) | GI50 (KM12): > 100 µM (inactive) | GI50 (U-251): > 100 µM (inactive) | GI50 (A549): > 100 µM (inactive) | GI50 (786-0): > 100 µM (inactive) | GI50 (NCI-H460): > 100 µM (inactive) | GI50 (SNB-19): > 100 µM (inactive) | GI50 (HCT-116): > 100 µM (inactive) | GI50 (NCI-H23): > 100 µM (inactive) | GI50 (SF-268): > 100 µM (inactive) | GI50 (HL-60): > 100 µM (inactive) | GI50 (MOLT-4): > 100 µM (inactive) | GI50 (SK-MEL-5): > 100 µM (inactive) | GI50 (HOP-92): > 100 µM (inactive) | GI50 (TK-10): > 100 µM (inactive) | GI50 (ACHN): > 100 µM (inactive) | GI50 (SW-620): > 100 µM (inactive) | GI50 (HT-29): > 100 µM (inactive) | GI50 (SF-295): > 100 µM (inactive) | GI50 (RPMI-8226): > 100 µM (inactive) | GI50 (MDA-MB-435): > 100 µM (inactive) | GI50 (IGROV-1): > 100 µM (inactive) | GI50 (BT-549): > 100 µM (inactive) | GI50 (MDA-N): > 100 µM (inactive) | GI50 (HCT-15): > 100 µM | GI50 (SK-MEL-2): > 100 µM (inactive) | GI50 (T47D): > 100 µM (inactive) | GI50 (UO-31): > 100 µM (inactive) | GI50 (UACC-62): > 100 µM (inactive) | GI50 (OVCAR-5): > 100 µM (inactive) | GI50 (A498): > 100 µM (inactive) | GI50 (CAKI-1): > 100 µM (inactive) | GI50 (HOP-62): > 100 µM (inactive) | GI50 (DU-145): > 100 µM (inactive) | GI50 (NCI/ADR-RES): > 100 µM (inactive)

c1ccc(/N=C2\c3ccccc3CN2c2ccccn2)nc1
GI50 (EKVX): > 100 µM (inactive) | GI50 (PC-3): 70.1 µM (inactive) | GI50 (Hs-578T): > 100 µM (inactive) | GI50 (RXF 393): > 100 µM (inactive) | GI50 (OVCAR-3): > 100 µM (inactive) | GI50 (MCF7): 49.9 µM (inactive) | GI50 (SK-OV-3): > 100 µM (inactive) | GI50 (UACC-257): > 100 µM (inactive) | GI50 (M14): > 100 µM (inactive) | GI50 (NCI-H522): 61.7 µM (inactive) | GI50 (COLO 205): 58.6 µM (inactive) | GI50 (LOX IMVI): 96.2 µM (inactive) | GI50 (SN12C): > 100 µM (inactive) | GI50 (MDA-MB-231): > 100 µM (inactive) | GI50 (SF-539): > 100 µM (inactive) | GI50 (SK-MEL-28): > 100 µM (inactive) | GI50 (SNB-75): 94.8 µM (inactive) | GI50 (OVCAR-8): > 100 µM (inactive) | GI50 (OVCAR-4): > 100 µM (inactive) | GI50 (KM12): > 100 µM (inactive) | GI50 (U-251): > 100 µM (inactive) | GI50 (A549): > 100 µM (inactive) | GI50 (786-0): > 100 µM (inactive) | GI50 (NCI-H460): 89.3 µM (inactive) | GI50 (SNB-19): > 100 µM (inactive) | GI50 (HCT-116): 74.3 µM (inactive) | GI50 (NCI-H23): 71.9 µM (inactive) | GI50 (HCC 2998): 37.8 µM (inactive) | GI50 (SF-268): > 100 µM (inactive) | GI50 (HL-60): < 0.01 µM (active) | GI50 (MOLT-4): 54.6 µM (inactive) | GI50 (SK-MEL-5): > 100 µM (inactive) | GI50 (HOP-92): 15.7 µM (inactive) | GI50 (TK-10): > 100 µM (inactive) | GI50 (ACHN): > 100 µM (inactive) | GI50 (SW-620): > 100 µM (inactive) | GI50 (HT-29): 34.2 µM (inactive) | GI50 (SF-295): > 100 µM (inactive) | GI50 (RPMI-8226): 78 µM (inactive) | GI50 (MDA-MB-435): > 100 µM (inactive) | GI50 (IGROV-1): > 100 µM (inactive) | GI50 (BT-549): > 100 µM (inactive) | GI50 (MDA-N): > 100 µM (inactive) | GI50 (HCT-15): > 100 µM | GI50 (SK-MEL-2): > 100 µM (inactive) | GI50 (NCI-H226): > 100 µM (inactive) | GI50 (T47D): 17.5 µM (inactive) | GI50 (UO-31): > 100 µM (inactive) | GI50 (K562): 65 µM (inactive) | GI50 (UACC-62): > 100 µM (inactive) | GI50 (OVCAR-5): > 100 µM (inactive) | GI50 (A498): > 100 µM (inactive) | GI50 (CAKI-1): > 100 µM (inactive) | GI50 (HOP-62): > 100 µM (inactive) | GI50 (DU-145): > 100 µM (inactive)
